# From PubChem BioAssay (NCI)
#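 Method: 48-hour compound exposure of cells in 96-well plates, five concentrations, linear interpolation of endpoints. The concentration for 50% growth inhibition is given as GI50. The concentration for full growth arrest is given as TGI.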
# How the values were obtained:
# Test in all cases: NCI tumour cell line growth inhibition, 48 h
# [1] = system: NCI-H522 lung
# [2] = system: SF-539 CNS
# [3] = system: OVCAR-3 ovarian
# [4] = system: UACC-62 melanoma
# [5] = system: K-562 leukemia
# [6] = system: HCT-15 colon
# [7] = system: HL-60(TB) leukemia
# [8] = system: SN12C renal
# [9] = system: HCC-2998 colon
# [10] = system: RXF 393 renal
Compound,GI50 [1],TGI [1],GI50 [2],TGI [2],GI50 [3],TGI [3],GI50 [4],TGI [4],GI50 [5],TGI [5],GI50 [6],TGI [6],GI50 [7],TGI [7],GI50 [8],TGI [8],GI50 [9],TGI [9],GI50 [10],TGI [10]
CN1CCN(C2=NC(=O)/C(=C\c3ccc(N(C)C)cc3)S2)CC1,> 100 µM,> 100 µM,> 100 µM,> 100 µM,> 100 µM,> 100 µM,91.7 µM,> 100 µM,> 100 µM,> 100 µM,> 100 µM,> 100 µM,46 µM,> 100 µM,> 100 µM,> 100 µM,> 100 µM,> 100 µM,45.4 µM,> 100 µM
CCCCNC(c1ccc(Cl)cc1)C(O)c1ccc(Cl)cc1 (stereo not given),1.56 µM,3.51 µM,1.83 µM,3.57 µM,1.98 µM,4.83 µM,1.49 µM,3.18 µM,2.11 µM,5.68 µM,2.08 µM,5.7 µM,1.02 µM,2.93 µM,2.16 µM,10.6 µM,1.83 µM,3.85 µM,1.49 µM,3.65 µM
Cc1ccc(/C(=N/Nc2ccc([N+](=O)[O-])cc2)Sc2cc(Cl)c(C)cc2S(N)(=O)=O)cc1,4.96 µM,> 28.2 µM,1.1 µM,2.97 µM,1.22 µM,2.61 µM,1.73 µM,3.64 µM,3.11 µM,> 38.4 µM,3.64 µM,> 49.6 µM,11.9 µM,42.1 µM,1.69 µM,3.95 µM,1.76 µM,3.66 µM,2.01 µM,6.52 µM
NCCO/C=C/C(N)C(=O)O (stereo not given),–,> 100 µM,–,> 100 µM,–,> 100 µM,–,> 100 µM,–,> 100 µM,–,> 100 µM,–,> 100 µM,–,> 100 µM,–,> 100 µM,–,> 100 µM
Cn1c(COC(=O)NCCc2ccccn2)nc2c(N3CCOCC3)nc(Cl)nc21,1.35 µM,3.16 µM,1.48 µM,2.84 µM,1.08 µM,2.58 µM,1.65 µM,3.29 µM,1.63 µM,75.2 µM,1.14 µM,3.2 µM,1.17 µM,4.61 µM,1.37 µM,3.48 µM,1.76 µM,3.57 µM,1.06 µM,2.45 µM
Cn1c(COC(=O)NCCn2ccnc2)nc2c(N3CCOCC3)nc(-c3ccccc3)nc21,0.352 µM,1.56 µM,1.17 µM,2.4 µM,0.174 µM,0.367 µM,1.23 µM,2.5 µM,0.347 µM,2 µM,0.193 µM,0.484 µM,0.615 µM,2.48 µM,0.727 µM,2.06 µM,1.41 µM,2.9 µM,0.488 µM,1.8 µM
CN(C)CCC(=O)Nc1ccc(-n2cc(-c3cccc(NC(=S)Nc4cccc(-c5cn(-c6ccc(NC(=O)CCN(C)C)cc6)nn5)c4)c3)nn2)cc1,27.3 µM,> 100 µM,28.1 µM,78.2 µM,16.4 µM,53.4 µM,33.3 µM,98.8 µM,4.49 µM,> 100 µM,> 100 µM,> 100 µM,> 100 µM,> 100 µM,61.5 µM,> 100 µM,> 100 µM,> 100 µM,> 100 µM,> 100 µM
CSc1nc(Nc2cccc(NC(=O)CCl)c2)c(C#N)c(-c2cccc([N+](=O)[O-])c2)n1,1.68 µM,5.36 µM,0.216 µM,0.528 µM,1.77 µM,3.24 µM,1.35 µM,3.17 µM,2.28 µM,> 100 µM,1.66 µM,4.1 µM,1.82 µM,6.48 µM,2.78 µM,10.3 µM,2.07 µM,4.37 µM,1.54 µM,3.22 µM
Cc1cccc(C)c1NC(=O)C(=O)Cc1nc2ccccc2s1,–,> 100 µM,–,> 100 µM,–,> 100 µM,–,> 100 µM,–,> 100 µM,–,> 100 µM,–,> 100 µM,–,> 100 µM,–,> 100 µM,–,> 100 µM
OCc1ccc(N(Cc2ccc(F)cc2)Cc2ccc(F)cc2)cc1Cl,9.39 µM,25.9 µM,15.7 µM,30 µM,10.3 µM,22.7 µM,2.61 µM,13.7 µM,4.93 µM,23.1 µM,9.88 µM,24.2 µM,14.5 µM,35.4 µM,11.5 µM,26 µM,14.3 µM,30.8 µM,12.7 µM,26.3 µM
CC(C)(C)C[C@H]1N[C@@H](C(=O)NC2CCC(O)CC2)[C@H](c2cccc(Cl)c2F)[C@@]12C(=O)Nc1cc(Cl)ccc12 (stereo not given in full),7.89 µM,22.9 µM,3.12 µM,11.5 µM,8.68 µM,21 µM,0.235 µM,2.46 µM,4.15 µM,18.7 µM,3.92 µM,18.2 µM,2.66 µM,7.06 µM,6.26 µM,21.2 µM,3.64 µM,13.1 µM,3.38 µM,17.2 µM
CCOC(=O)Nc1ccc2nc(-c3cscn3)[nH]c2c1,2.43 µM,21 µM,3.32 µM,20.6 µM,3.79 µM,23.4 µM,4.08 µM,> 100 µM,0.942 µM,> 100 µM,2.2 µM,> 100 µM,3.17 µM,> 100 µM,5.6 µM,> 100 µM,18.5 µM,> 100 µM,2.41 µM,13.6 µM
Cc1nnc2n1N=C(c1ccccc1)C(c1ccccc1)S2 (stereo not given),–,57.7 µM,–,72.4 µM,–,> 100 µM,–,> 100 µM,–,> 100 µM,–,> 100 µM,–,64.5 µM,–,> 100 µM,–,> 100 µM,–,85.7 µM
